The source made the active and inactive calls. The calls are words filed in the database; no cut-off is given here.
Tests used:
[1] = biological target: CDK9/cyclin T1 (Homo sapiens) (UniProt O60563+P50750); test: Inhibition of against CDK9/cyclinT1 (unknown origin) at 10 uM using Ulight-CFFKNIVTPRTPPPSQGK-amide substrate and ATP incubated for 90 mins by fluorescence based assay; assay type: protein-complex assay
[2] = Cytotoxicity against human HCT116 cells assessed as inhibition of cell growth by MTT assay; assay type: functional, cell-based, HCT-116
HepG2 = test: Cytotoxicity against human HepG2 cells assessed as inhibition of cell growth by MTT assay; assay type: functional, cell-based
[3] = Cytotoxicity against human BGC823 cells assessed as inhibition of cell growth by MTT assay; assay type: functional, cell-based, BGC-823
[4] = Cytotoxicity against human […] cells assessed as inhibition of cell growth by MTT assay; assay type: functional, cell-based
A2780 = test: Cytotoxicity against human A2780 cells assessed as inhibition of cell growth by MTT assay; assay type: functional, cell-based
[5] = biological target: Cyclin-dependent kinase 2/cyclin E1 (Homo sapiens, UniProt P24941); test: Inhibition of against CDK2/cyclinE1 (unknown origin) using Ulight-CFFKNIVTPRTPPPSQGK-amide substrate and ATP incubated for 15 mins by fluorescence based assay; assay type: protein-complex assay
CDK9/cyclin T1 = CDK9/cyclin T1 (Homo sapiens, UniProt P50750); test: Inhibition of against CDK9/cyclinT1 (unknown origin) using Ulight-CFFKNIVTPRTPPPSQGK-amide substrate and ATP incubated for 90 mins by fluorescence based assay; assay type: protein-complex assay
Homo sapiens = species on record: Homo sapiens; test: Selectivity index, ratio of IC50 for CDK2/cyclinE1 (unknown origin) to IC50 for CDK9/cyclinT1 (unknown origin)
BGC-823 = test: Cytotoxicity against human BGC823 cells assessed as inhibition of cell growth at 10 uM by MTT assay; assay type: functional, cell-based
[6] = Homo sapiens, HCT-116, read-out: IC50
[7] = Homo sapiens, HepG2, read-out: IC50
[8] = Homo sapiens, BGC-823, read-out: IC50
[9] = Homo sapiens, A2780, read-out: IC50

Chain of CDK9/cyclin T1 (O60563 whole entry): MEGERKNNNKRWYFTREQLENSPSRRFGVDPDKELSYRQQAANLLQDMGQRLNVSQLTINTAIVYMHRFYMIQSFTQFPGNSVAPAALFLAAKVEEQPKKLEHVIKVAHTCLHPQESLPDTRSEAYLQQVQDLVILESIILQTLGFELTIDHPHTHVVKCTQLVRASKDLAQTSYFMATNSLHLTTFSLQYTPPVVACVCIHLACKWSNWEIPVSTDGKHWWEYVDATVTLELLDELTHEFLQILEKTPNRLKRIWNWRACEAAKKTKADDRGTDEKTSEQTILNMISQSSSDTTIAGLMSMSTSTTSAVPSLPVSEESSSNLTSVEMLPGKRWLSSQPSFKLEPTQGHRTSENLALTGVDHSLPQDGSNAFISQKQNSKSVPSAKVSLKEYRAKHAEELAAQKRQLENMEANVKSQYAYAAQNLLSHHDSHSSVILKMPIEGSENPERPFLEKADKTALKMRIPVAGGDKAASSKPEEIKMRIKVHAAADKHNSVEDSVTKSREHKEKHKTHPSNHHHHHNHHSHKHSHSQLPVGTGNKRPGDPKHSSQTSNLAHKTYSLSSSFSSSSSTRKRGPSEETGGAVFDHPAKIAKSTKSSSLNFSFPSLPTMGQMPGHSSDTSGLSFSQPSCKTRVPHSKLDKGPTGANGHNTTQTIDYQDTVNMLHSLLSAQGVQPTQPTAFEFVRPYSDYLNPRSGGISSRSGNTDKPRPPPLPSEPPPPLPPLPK
Chain of CDK9/cyclin T1 (P50750 whole entry): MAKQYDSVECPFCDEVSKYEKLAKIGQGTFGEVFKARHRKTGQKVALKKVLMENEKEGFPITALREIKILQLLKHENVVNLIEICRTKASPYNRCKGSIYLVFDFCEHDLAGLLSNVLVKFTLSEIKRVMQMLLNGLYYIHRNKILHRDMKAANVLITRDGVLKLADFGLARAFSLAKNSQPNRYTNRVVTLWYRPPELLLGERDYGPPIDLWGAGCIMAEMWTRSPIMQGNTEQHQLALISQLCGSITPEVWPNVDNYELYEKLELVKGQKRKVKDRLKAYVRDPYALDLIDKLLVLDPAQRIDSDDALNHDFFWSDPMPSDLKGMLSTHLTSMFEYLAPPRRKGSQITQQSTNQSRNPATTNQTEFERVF

Row | inhibition [1] | IC50 [5] | IC50 (CDK9/cyclin T1) | Structure (SMILES) | IC50 ([2]; hct-116) | IC50 (HepG2; hepg2) | IC50 ([3]; bgc-823) | IC50 [4] | IC50 (A2780; a2780) | further results
1 | 67% |  |  | O=C1Nc2ccccc2/C1=C1/Nc2cc(F)c(F)cc2/C1=N\O |  |  |  |  |  | IC50 [2, 6]: 2320 nM; IC50 (HepG2; [7]): 1910 nM; IC50 [3, 8]: 6450 nM; IC50 ([4]; Homo sapiens, read-out: IC50): 3040 nM; IC50 (A2780; [9]): 2500 nM
2 | 86% | 6400 nM | 400 nM | O=C1Nc2ccc(Cl)cc2/C1=C1/Nc2cc(F)c(F)cc2/C1=N\O |  |  |  |  |  | Ratio IC50 (Homo sapiens): 15
3 | 52% |  |  | CN1C(=O)/C(=C2\Nc3cc(F)c(F)cc3\C2=N/O)c2ccccc21 |  |  |  |  |  | IC50 [2, 6]: 2220 nM; IC50 (HepG2; [7]): 2540 nM; IC50 [3, 8]: 9200 nM; IC50 ([4]; Homo sapiens, read-out: IC50): 2770 nM; IC50 (A2780; [9]): 4030 nM
4 | 81% | 1100 nM | 1900 nM | COc1ccc2c(c1)/C(=C1/Nc3cc(F)c(F)cc3/C1=N\O)C(=O)N2 |  |  |  |  |  | 
5 | 84% | 400 nM | 300 nM | COc1ccc2c(c1)/C(=C1/Nc3cc(F)c(F)cc3/C1=N\OCCO)C(=O)N2 |  |  |  |  |  | 
6 | < 30% |  |  | COc1ccc2c(c1)/C(=C1/Nc3ccc(OC(F)(F)F)cc3/C1=N\O)C(=O)N2 | Not Active | Not Active | Not Active | Not Active | Not Active | 
7 | < 30% |  |  | CO/N=C1/C(=C2/C(=O)Nc3ccc(F)cc32)Nc2cc(F)c(F)cc21 | Not Active | Not Active | Not Active | Not Active | Not Active | 
8 | < 30% |  |  | CO/N=C1/C(=C2/C(=O)Nc3ccc([N+](=O)[O-])cc32)Nc2cc(F)c(F)cc21 | Not Active | Not Active | Not Active | Not Active | Not Active | 
9 | < 30% |  |  | O=C1Nc2c(Cl)cc(Cl)cc2/C1=C1/Nc2cc(F)c(F)cc2/C1=N\O | Not Active | Not Active | Not Active | Not Active | Not Active | 
10 | 74% | 4100 nM | 5600 nM | O=C1Nc2ccc(OC(F)(F)F)cc2/C1=C1/Nc2cc(F)c(F)cc2/C1=N\O |  |  |  |  |  | 
11 | 89% | 1000 nM | 700 nM | O=C1Nc2ccc([N+](=O)[O-])cc2/C1=C1/Nc2cc(F)c(F)cc2/C1=N\O |  |  |  |  |  | IC50 [2, 6]: 2160 nM; IC50 (HepG2; [7]): 2450 nM; IC50 [3, 8]: 6140 nM; IC50 ([4]; Homo sapiens, read-out: IC50): 2210 nM; IC50 (A2780; [9]): 2220 nM
12 | 70% | 700 nM | 2400 nM | O=Nc1c(-c2c(O)[nH]c3ccccc23)[nH]c2ccccc12 [INDIRUBIN-3-MONOXIME] |  |  |  |  |  | 
13 | 59% |  |  | O=C1Nc2cc(Cl)ccc2/C1=C1/Nc2cc(F)c(F)cc2/C1=N\O |  |  |  |  |  | 
14 | 60% |  |  | Nc1ccc2c(c1)/C(=C1/Nc3cc(F)c(F)cc3/C1=N\O)C(=O)N2 |  |  |  |  |  | IC50 [2, 6]: 5820 nM; IC50 (HepG2; [7]): 5620 nM; IC50 ([4]; Homo sapiens, read-out: IC50): 2540 nM; IC50 (A2780; [9]): 2260 nM; growth inhibition (GI) (BGC-823): inactive
15 | < 30% |  |  | O=C1Nc2c(cccc2C(F)(F)F)/C1=C1/Nc2cc(F)c(F)cc2/C1=N\O | Not Active | Not Active | Not Active | Not Active | Not Active | 
16 | 85% | 2700 nM | 1700 nM | O=C1Nc2ccc(F)cc2/C1=C1/Nc2cc(F)c(F)cc2/C1=N\O |  |  |  |  |  | IC50 [2, 6]: 940 nM; IC50 (HepG2; [7]): 2680 nM; IC50 [3, 8]: 9650 nM; IC50 ([4]; Homo sapiens, read-out: IC50): 2720 nM; IC50 (A2780; [9]): 2370 nM
17 | < 30% |  |  | O=C1Nc2ccc(F)cc2/C1=C1/Nc2ccc(OC(F)(F)F)cc2/C1=N\O | Not Active | Not Active | Not Active | Not Active | Not Active | 
18 | 65% |  |  | Cc1ccc2c(c1)/C(=C1/Nc3cc(F)c(F)cc3/C1=N\O)C(=O)N2 |  |  |  |  |  | 
19 | < 30% |  |  | O=C1Nc2c(Cl)cccc2/C1=C1/Nc2cc(F)c(F)cc2/C1=N\O | Not Active | Not Active | Not Active | Not Active | Not Active | 
20 | < 30% |  |  | O=C1Nc2ccc([N+](=O)[O-])cc2/C1=C1/Nc2ccc(OC(F)(F)F)cc2/C1=N\O | Not Active | Not Active | Not Active | Not Active | Not Active | 

Reference: ChEMBL document CHEMBL3421588, “Discovery of novel indirubin-3'-monoxime derivatives as potent inhibitors against CDK2 and CDK9” (Bioorg Med Chem Lett, 2015)
